Laboratory results published in patent US8957074B2 (Novartis AG, priority 2010, dated 2015).
Read-outs that look alike come from different tables or passages of the source.

How the values were obtained:
CDK1/cyclin B = CDK1/cyclin B (Homo sapiens (Human), UniProt P06493); assay: CDK1/cyclin B enzymatic activity assay (IMAP-FP); assay type: biochemical; settings: 100 nM Tamra Histone-H1 peptide, 20 μM ATP, 120 min at room temperature, read-out: Biochemical CDK1 enzyme IC50
Text: CDK1/Cyclin B Enzymatic Activity Assay
A 384-well microtiter IMAP-FP™ (Molecular Devices Trade Mark Technology) endpoint assay was used for CDK1/cyclin B kinase activity measurements. The same assay was used for IC50 determination of small molecule inhibitors.

[1] = tested on: phosphorylation of pRb at the Ser780 site in JeKo-1 mantle cell lymphoma cells; assay: CDK4 cellular assay: ELISA of pRb phosphorylation at Ser780 in JeKo-1 cells; assay type: cell-based; settings: Homo sapiens
Text: Cell-based assay measuring phosphorylation levels of pRb at the Ser780 site using an enzyme-linked immunosorbent assay (ELISA) method (Table 6). JeKo-1, a mantle-cell lymphoma cell line, was selected for use in this assay due to its known translocation and subsequent overexpression of cyclin D1. [Ref: Amin, H. M.; McDonnell, T. J.; Medeiros, L. J.; Rassidakis, G. Z.; Leventaki, V.; O'Connor, S. L.; Keating, M. J.; Lai, R. Characterization of 4 mantle cell lymphoma cell lines—Establishment of an in vitro study model. Arch. Pathol. Lab.
Cells were allowed to adhere overnight. […] 10 μL of the dilution were then transferred to the cell culture plate, resulting in a final concentration range of 10 μM to 2 nM. The incubation was carried out at 37° C. with 5% CO2. All compounds were tested in triplicates at each concentration. […] The plates were placed at 4° C. with vigorous shaking for 5 min to lyse the cells. The resulting lysates contained approximately 1 μg/μL of protein.
Plates were incubated overnight at 4° C. with rocking. […] After shaking for 10 minutes, the Superblock solution was replaced with fresh Superblock and plates were incubated on a shaker for an additional 50 min. After blocking, 30 μL of JeKo-1 cell lysate, containing approximately 10 μg total protein, were added to wells in triplicate. […] For all incubation steps, plates were covered with Uniseal plate sealers. […] Next, 50 μL of a 1:2500 dilution of donkey-anti-rabbit HRP (Promega catalog no. W401B) in PBS/10% Superblock were added, and plates were incubated for 30 min at room temperature on a shaker. Plates were again washed as described above. […] After incubation, 50 μL 2 M sulfuric acid were added to plates to top the reaction, and absorbance was determined on a SpectraMax (Molecular Devices, Sunnydale, Calif.) within 15 minutes at 450 nm. All washes were performed using a Bio-Tek plate washer.
The Total Rb ELISA kit (Invitrogen catalog no. KH00011) was used to determine the levels of total pRb. This kit uses wells precoated with a proprietary total pRb antibody for capture. All reagents listed, with the exception of cell lysate, were included in the kit. The nature of the antibodies used for capture and detection was labeled as proprietary and not disclosed. 10 μg of cell lysate was loaded into the wells and volume adjusted to 50 μL with standard dilution buffer. Plates were sealed with film included in the kit and incubated for 2 h at room temperature on a shaker. Plates are then manually washed three times with 250 μL wash buffer. 50 μL of proprietary primary antibody (pre-conjugated to biotin) was added to wells and incubated for 1 h at room temperature on a shaker. Then plates were again washed as noted above. The secondary antibody (HRP pre-conjugated to Streptavidin) was diluted 1:100 in Streptavidin-HRP diluent buffer and 50 μL was added to each well. Plates were then incubated for 30 min. Afterwards, plates were washed four times with buffer as outlined above. Finally, 50 μL stabilized Chromogen was added per well and plates were incubated for 15 min, at which point 50 μL of stop solution was added. Plates were then read on a Spectramax at 450 nm.
The total pRb levels were then used to adjust the p-pRb % inhibition values to account for any loss of signal due to the absence of the pRb protein itself, and the IC50 values obtained from the adjusted % inhibitions represent normalized cellular p-pRb IC50.

CDK4/cyclin D1 = CDK4/cyclin D1 (Homo sapiens (Human), UniProt P11802); assay: CDK4/cyclin D1 enzymatic activity assay (TR-FRET, phosphorylation of pRb at Ser780); assay type: biochemical; settings: 0.3 nM CDK4/cyclin D1, 150 nM biotin-pRb (773-924), 3 μM ATP, 60 min at 22° C.; read-out: Biochemical CDK4 enzyme IC50
Chain of CDK4/cyclin D1 (P11802 whole entry): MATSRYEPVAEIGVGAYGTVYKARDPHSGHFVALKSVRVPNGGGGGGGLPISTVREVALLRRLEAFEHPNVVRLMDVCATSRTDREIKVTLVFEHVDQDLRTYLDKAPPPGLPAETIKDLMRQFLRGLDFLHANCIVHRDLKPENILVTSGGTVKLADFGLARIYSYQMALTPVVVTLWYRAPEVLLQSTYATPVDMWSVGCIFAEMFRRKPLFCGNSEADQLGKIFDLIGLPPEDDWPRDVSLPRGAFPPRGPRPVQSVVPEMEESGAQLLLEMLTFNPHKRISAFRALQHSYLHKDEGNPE
Chain of CDK4/cyclin D1 (P24385 whole entry partner): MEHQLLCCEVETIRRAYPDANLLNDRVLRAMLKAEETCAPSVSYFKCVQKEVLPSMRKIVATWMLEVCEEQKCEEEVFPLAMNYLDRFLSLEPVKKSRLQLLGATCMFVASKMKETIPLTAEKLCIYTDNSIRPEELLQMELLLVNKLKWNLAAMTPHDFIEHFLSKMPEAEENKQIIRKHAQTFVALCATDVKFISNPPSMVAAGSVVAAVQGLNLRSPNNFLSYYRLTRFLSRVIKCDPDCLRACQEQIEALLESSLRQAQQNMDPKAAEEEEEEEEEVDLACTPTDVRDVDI
Method: CDK4/Cyclin D1 Enzymatic Activity Assay
An assay for monitoring CDK4/cyclin D1-catalyzed phosphorylation of pRb at the Ser780 site was performed using TR-FRET in a 384-well format, and was used for IC50 determination and kinetic analysis. […] 3 μM ATP was added last to initiate the reaction. The reaction was quenched with 10 μL of 240 mM EDTA-Na (pH 8.0) after 60 min incubation at 22° C.
Human CDK4/cyclin D1 was expressed in Sf21 cells via baculovirus infection.

[2] = JeKo-1, JeKo-1 cells, p-pRb % inhibition adjusted with total pRb levels, read-out: Normalized cellular ppRb inhibition IC50
[3] = JeKo-1, JeKo-1 cells, p-pRb Ser780 ELISA, non-normalized, read-out: Cellular ppRb inhibition IC50
[4] = JeKo-1 cells, p-pRb % inhibition adjusted with total pRb levels, read-out: Normalized cellular ppRb inhibition IC50
[5] = JeKo-1 cells, p-pRb Ser780 ELISA, non-normalized, read-out: Cellular ppRb inhibition IC50

Chain of CDK1/cyclin B (P06493 whole entry, species assumed): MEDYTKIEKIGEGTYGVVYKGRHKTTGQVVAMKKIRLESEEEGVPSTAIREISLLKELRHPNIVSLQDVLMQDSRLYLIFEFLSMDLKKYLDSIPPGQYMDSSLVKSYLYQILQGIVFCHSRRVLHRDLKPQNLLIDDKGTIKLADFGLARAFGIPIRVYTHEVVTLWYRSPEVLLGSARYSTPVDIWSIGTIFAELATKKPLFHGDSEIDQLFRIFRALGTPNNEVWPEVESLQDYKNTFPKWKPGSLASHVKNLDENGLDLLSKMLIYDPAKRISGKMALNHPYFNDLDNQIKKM
Chain of CDK1/cyclin B (P14635 whole entry partner, species assumed): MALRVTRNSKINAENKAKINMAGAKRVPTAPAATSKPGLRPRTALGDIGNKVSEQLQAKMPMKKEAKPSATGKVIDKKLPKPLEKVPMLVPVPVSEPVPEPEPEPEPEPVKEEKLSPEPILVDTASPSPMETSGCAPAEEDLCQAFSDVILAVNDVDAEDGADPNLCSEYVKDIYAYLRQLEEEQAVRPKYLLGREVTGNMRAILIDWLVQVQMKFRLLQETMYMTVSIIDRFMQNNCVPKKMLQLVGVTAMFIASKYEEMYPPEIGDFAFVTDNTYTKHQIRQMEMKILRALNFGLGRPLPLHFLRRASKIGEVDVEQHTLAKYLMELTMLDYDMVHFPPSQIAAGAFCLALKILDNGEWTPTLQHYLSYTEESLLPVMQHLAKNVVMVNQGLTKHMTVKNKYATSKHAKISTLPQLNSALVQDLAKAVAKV

Row | IC50 (CDK1/cyclin B; […] CDK1/cyclin B) [µM] | IC50 (CDK1/cyclin B; 0.25 nM CDK1/cyclin B) [µM] | Structure (SMILES) | IC50 [1, 2] [µM] | IC50 [1, 3] [µM] | IC50 (CDK4/cyclin D1) [µM] | IC50 [1, 4] [µM] | IC50 [1, 5] [µM] | IC50 ([1]; JeKo-1, read-out: Cellular ppRb inhibition IC50) [µM] | IC50 ([1]; JeKo-1, read-out: Normalized cellular ppRb inhibition IC50) [µM]
1 | 7.1 | – | CN(C)C(=O)c1cc2cnc(Nc3ccc(C(=O)N4CC5CNC(C5)C4)cn3)nc2n1C1CCCC1 (racemic) [Example 9, 7-Cyclopentyl-2-[5-(3,6-diaza-bicyclo[3.2.1]octane-3-carbonyl)-pyridin-2-ylamino]-7H-pyrrolo[2,3-d]pyrimidine-6-carboxylic acid dimethylamide] | 0.12 | 0.055 | < 0.004 | – | – | – | –
2 | > 15 | – | CN(C)C(=O)c1cc2cnc(Nc3ccc(C(=O)N4CC5CC5(N)C4)cn3)nc2n1C1CCCC1 (racemic) [Example 14, 2-[5-(1-Amino-3-aza-bicyclo[3.1.0]hexane-3-carbonyl)-pyridin-2-ylamino]-7-cyclopentyl-7H-pyrrolo[2,3-d]pyrimidine-6-carboxylic acid dimethylamide] | 0.371 | 0.133 | 0.019 | – | – | – | –
3 | – | – | CN(C)C(=O)c1cc2cnc(Nc3ccc(C(=O)N4CCC5CCC(C4)N5)cn3)nc2n1C1CCCC1 (racemic) [Example 69, 7-Cyclopentyl-2-[5-(3,9-diaza-bicyclo[4.2.1]nonane-3-carbonyl)-pyridin-2-ylamino]-7H-pyrrolo[2,3-d]pyrimidine-6-carboxylic acid dimethylamide] | – | – | 0.005 to 0.018 | 0.048 | 0.024 | – | –
4 | – | 18 | CN(C)C(=O)c1cc2cnc(Nc3ccc(N4CC5CNCC5C4=O)cn3)nc2n1C1CCCC1 (racemic) [Example 84, 7-cyclopentyl-N,N-dimethyl-2-(5-cis-1-oxohexahydropyrrolo[3,4-c]pyrrol-2(1H)-yl)pyridin-2-ylamino)-7H-pyrrolo[2,3-d]pyrimidine-6-carboxamide] | 0.01 to 0.028 | 0.007 to 0.017 | < 0.005 | – | – | – | –
5 | – | > 15 | CN(C)C(=O)c1cc2cnc(Nc3ccc(C(=O)N4CC5C[C@]5(N)C4)cn3)nc2n1C1CCCC1 (single isomer, unassigned) [Example 16] | 0.233 | 0.092 | 0.015 | – | – | – | –
6 | > 15 | – | CN(C)C(=O)c1cc2cnc(Nc3ccc(C(=O)N4C[C@@H]5C[C@]5(N)C4)cn3)nc2n1C1CCCC1 (stereo in doubt) [Example 15, 2-[5-((S)-1-Amino-3-aza-bicyclo[3.1.0]hexane-3-carbonyl)-pyridin-2-ylamino]-7-cyclopentyl-7H-pyrrolo[2,3-d]pyrimidine-6-carboxylic acid dimethylamide] | 0.264 | 0.043 | 0.018 | – | – | – | –
7 | – | – | CN(C)C(=O)c1cc2cnc(Nc3ccc(C(=O)N4CC5CCCC(C4)N5)cn3)nc2n1C1CCCC1 [Example 52, 7-Cyclopentyl-2-[5-(3,9-diaza-bicyclo[3.3.1]nonane-3-carbonyl)-pyridin-2-ylamino]-7H-pyrrolo[2,3-d]pyrimidine-6-carboxylic acid dimethylamide] | – | – | 0.027 | 0.045 to 0.053 | 0.021 to 0.047 | – | –
8 | – | – | CN(C)C(=O)c1cc2cnc(Nc3ccc(C(=O)N4CC5CCC(C4)N5)cn3)nc2n1C1CCC1 [Example 55, 7-Cyclobutyl-2-[5-(3,8-diaza-bicyclo[3.2.1]octane-3-carbonyl)-pyridin-2-ylamino]-7H-pyrrolo[2,3-d]pyrimidine-6-carboxylic acid dimethylamide] | – | – | – | 0.035 to 0.164 | 0.031 to 0.112 | – | –
9 | – | – | CN(C)C(=O)c1cc2cnc(Nc3ccc(C(=O)N4CC5CCC(C4)N5)cn3)nc2n1C1CCN(C2CC2)CC1 [Example 56, 7-(1-cyclopropyl-piperidin-4-yl)-2-[5-(3,8-diaza-bicyclo[3.2.1]octane-3-carbonyl)-pyridin-2-ylamino]-7H-pyrrolo[2,3-d]pyrimidine-6-carboxylic acid dimethylamide] | 0.47 | 0.395 | – | – | – | – | –
10 | – | – | CN(C)C(=O)c1cc2cnc(Nc3ccc(C(=O)N4CC[C@H]5CC[C@@H](C4)N5)cn3)nc2n1C1CCCC1 [Example 71, 7-Cyclopentyl-2-[5-((1S,6R)-3,9-diaza-bicyclo[4.2.1]nonane-3-carbonyl)-pyridin-2-ylamino]-7H-pyrrolo[2,3-d]pyrimidine-6-carboxylic acid dimethylamide] | – | – | 0.005 to 0.006 | 0.056 | 0.031 | – | –
11 | – | – | CN(C)C(=O)c1cc2cnc(Nc3ccc(C(=O)N4CC[C@@H]5CC[C@H](C4)N5)cn3)nc2n1C1CCCC1 [Example 72, 7-cyclopentyl-2-[5-((1R,6S)-3,9-diaza-bicyclo[4.2.1]nonane-3-carbonyl)-pyridin-2-ylamino]-7H-pyrrolo[2,3-d]pyrimidine-6-carboxylic acid dimethylamide] | – | – | 0.013 | 0.112 | 0.048 | – | –
12 | – | – | CN(C)C(=O)c1cc2cnc(Nc3ccc(N4CCC5(CCCN5)C4=O)cn3)nc2n1C1CCCC1 (stereo not shown) [Example 113, 7-Cyclopentyl-2-[5-(6-oxo-1,7-diaza-spiro[4,4]non-7-yl)-pyridin-2-ylamino]-7H-pyrrolo[2,3-d]pyrimidin-6-carboxylic acid dimethylamide] | 0.204 to 0.245 | 0.177 to 0.205 | 0.017 to 0.021 | – | – | – | –
13 | – | – | CN(C)C(=O)c1cc2cnc(Nc3ccc(N4CC5CCC(CC4=O)N5)cn3)nc2n1-c1ccc(C(C)(C)C#N)cc1 (stereo not shown) [Example 127, 7-(4-(2-cyanopropan-2-yl)phenyl)-N,N-dimethyl-2-(5-(4-oxo-3,9-diazabicyclo[4.2.1]nonan-3-yl)pyridin-2-ylamino)-7H-pyrrolo[2,3-d]pyrimidine-6-carboxamide] | – | – | – | 0.247 to 1.52 | 0.119 to 0.917 | – | –

Row | Structure (SMILES) | IC50 (CDK1/cyclin B; […] CDK1/cyclin B) [µM] | IC50 (CDK1/cyclin B; 0.25 nM CDK1/cyclin B) [µM] | IC50 [1, 2] [µM] | IC50 [1, 3] [µM] | IC50 (CDK4/cyclin D1) [µM] | IC50 [1, 4] [µM] | IC50 [1, 5] [µM] | IC50 ([1]; JeKo-1, read-out: Cellular ppRb inhibition IC50) [µM] | IC50 ([1]; JeKo-1, read-out: Normalized cellular ppRb inhibition IC50) [µM]
14 | CN(C)C(=O)c1cc2cnc(Nc3ccc(N4CC5CNCC5CC4=O)cn3)nc2n1C1CCCCCC1 (racemic) [Example 87, 7-cycloheptyl-N,N-dimethyl-2-(5-(cis-6-oxotetrahydro-1H-pyrrolo[3,4-c]pyridin-5(6H,7H,7aH)-yl)pyridin-2-ylamino)-7H-pyrrolo[2,3-d]pyrimidine-6-carboxamide] | 4.14 | – | – | – | < 0.005 | – | – | 0.005 to 0.008 | 0.006 to 0.015
15 | CN(C)C(=O)c1cc2cnc(Nc3ccc(N4CC5CNCC5CC4=O)cn3)nc2n1C1CCCC1 (racemic) [Example 90, 7-cyclopentyl-N,N-dimethyl-2-(5-(cis-6-oxotetrahydro-1H-pyrrolo[3,4-c]pyridin-5(6H,7H,7aH)-yl)pyridin-2-ylamino)-7H-pyrrolo[2,3-d]pyrimidine-6-carboxamide] | > 15 | – | 0.014 to 0.056 | 0.009 to 0.034 | 0.005 | – | – | – | –
